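Cultured in 96-well plates, cells were exposed to test compound for 48 hours across five concentrations. Abbreviation: GI50, concentration required for 50% inhibition of growth.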 Activity calls are given as the source filed them. No stated cut-off is given here; in the data, active = GI50 up to about 1.1 µM and inactive = higher.

Holding throughout (experiment): inhibition of tumour cell growth, NCI panel, 48 h
Experiment [1] relates to A498.
The subject of experiment [2] is COLO 205.
For experiment [3], the system named is HCT-116.
For experiment [4], the system named is HT-29.
In experiment [5] the test system is K562.
For experiment [6], the system named is LOX IMVI.
The test system of experiment [7] is MDA-N.
Experiment [8] relates to MOLT-4.
Experiment [9] has as its system NCI-H460.
The subject of experiment [10] is OVCAR-8.
Experiment [11] concerns PC-3.
For experiment [12], the system named is RXF 393.
Experiment [13] deals with SF-268.
The subject of experiment [14] is SK-MEL-2.
In experiment [15] the test system is SK-OV-3.
Experiment [16] relates to SW-620.
Experiment [17] relates to T47D.
Experiment [18] concerns TK-10.
The test system of experiment [19] is U-251.
In experiment [20] the test system is UACC-62.

For the compound `CCN(CCCl)c1cc(CN(C)C)cc(NC(=O)C23CCC(C(=O)Nc4cc(CN(C)C)cc(N(CC)CCCl)c4)(CC2)CC3)c1`, the GI50 is 6.44 µM (inactive) in experiment [1]; 1.49 µM (inactive) in experiment [2]; 1.11 µM (active) in experiment [3]; 0.229 µM (active) in experiment [4]; 0.738 µM (active) in [5]; 0.152 µM (active) in [6]. The GI50 is 1.12 µM (inactive) in experiment [7]; < 0.01 µM (active) in [8]; 0.0687 µM (active) in [9]; 1.11 µM (active) in experiment [10]; 0.351 µM (active) in experiment [11]; 1.37 µM (inactive) in [12]. In addition, the GI50 was 0.23 µM (active) in experiment [13]; 2.39 µM (inactive) in [14]; 0.372 µM (active) in experiment [15]; 0.105 µM (active) in [16]; 3.03 µM (inactive) in experiment [17]; 8.49 µM (inactive) in experiment [18]. Moreover, the GI50 is 0.764 µM (active) in [19] and 1.14 µM (inactive) in experiment [20].

Take `CC1=C(N2CC2)C(=O)c2nc3n(c2C1=O)CCC3OC(=O)CCl` (stereo not given): the GI50 in [1] was 0.061 µM (active); in [2], 0.128 µM (active); in [3] it was 0.0418 µM (active); in experiment [4], 0.0902 µM (active); in [5], 0.0618 µM (active); in experiment [6], 0.0354 µM (active). Moreover, the GI50 is 0.0222 µM (active) in [7]; 0.753 µM (active) in experiment [8]; 0.0183 µM (active) in [9]; 0.0452 µM (active) in experiment [10]; 0.0214 µM (active) in experiment [11]; 0.0338 µM (active) in experiment [12]. Besides, the GI50 in experiment [13] is 0.0498 µM (active); in [14] it was 0.0478 µM (active); in experiment [15] it was 0.0705 µM (active); in [16], 0.0316 µM (active); in [17], 1.11 µM (active); in experiment [18] it was 0.13 µM (active). The GI50 in experiment [19] is 0.0252 µM (active); in experiment [20] it was 0.0356 µM (active).

As for `Cc1cc(C)nc(NC(=O)COc2ccc(Cl)cc2)c1`, the GI50 in experiment [1], in experiment [2], in [3], in experiment [4], in experiment [5] and in experiment [6] was > 100 µM (inactive) throughout. Also, the GI50 in experiment [7] was > 100 µM (inactive); in experiment [8], 56.6 µM (inactive); in experiment [9], > 100 µM (inactive); in experiment [10], > 100 µM (inactive); in experiment [11] it was > 100 µM (inactive); in [12], 71.8 µM (inactive). In addition, the GI50 in experiment [13] was > 100 µM (inactive); in experiment [14], > 100 µM (inactive); in experiment [15] it was > 100 µM (inactive); in experiment [16], > 100 µM (inactive); in experiment [17], 48.9 µM (inactive); in [18], > 100 µM (inactive). Further, the GI50 in [19] and in [20] was > 100 µM (inactive) each time.

For `CO[C@H]1Nc2c(ccc(C)c2O)C(=O)N2C=C(/C=C/C(N)=O)C[C@@H]12` [ANTHRAMYCIN METHYL ETHER], the GI50 in [1] was 0.183 µM (active); in [2], 0.0316 µM (active); in experiment [3], 0.0382 µM (active); in experiment [4], 0.0256 µM (active); in [5], 0.0396 µM (active); in experiment [6] it was 0.0161 µM (active). For the same compound, the GI50 was 0.0133 µM (active) in experiment [7]; 0.0276 µM (active) in [8]; 0.0322 µM (active) in experiment [9]; 0.0394 µM (active) in experiment [10]; 0.0215 µM (active) in experiment [11]; 0.0296 µM (active) in experiment [12]. Moreover, the GI50 was 0.0183 µM (active) in experiment [13]; 0.0151 µM (active) in experiment [14]; 0.0405 µM (active) in [15]; 0.0308 µM (active) in [16]; 0.495 µM (active) in experiment [17]; 0.0585 µM (active) in [18]. For the same compound, the GI50 in experiment [19] was 0.0162 µM (active); in experiment [20], 0.0151 µM (active).

For `COc1ccc(OC)c(/N=C/c2cc(OC)c(OC)c(OC)c2)c1`, the GI50 in experiment [1] was > 100 µM (inactive); in [2] it was > 100 µM (inactive); in [3], > 100 µM (inactive); in experiment [4] it was > 100 µM (inactive); in experiment [5], > 68.1 µM (inactive); in experiment [6], > 100 µM (inactive). In addition, the GI50 in [7] was 40.1 µM (inactive); in [8], 68.9 µM (inactive); in [9], > 100 µM (inactive); in experiment [10], > 100 µM (inactive); in experiment [11], > 100 µM (inactive); in experiment [12] it was > 100 µM (inactive). The GI50 is > 100 µM (inactive) in [13]; > 100 µM (inactive) in experiment [14]; > 77.8 µM (inactive) in [15]; > 91.2 µM (inactive) in experiment [16]; > 100 µM (inactive) in experiment [17]; > 100 µM (inactive) in [18]. Further, the GI50 in experiment [19] and in experiment [20] was > 100 µM (inactive) throughout.

`O=C1CC[C@@]2(O)[C@H]3Cc4ccc(-c5ccccc5)c5c4[C@@]2(CCN3CC2CC2)[C@H]1O5`: the GI50 in experiment [1] was 18.1 µM (inactive); in experiment [2], 17.7 µM (inactive); in experiment [3], 16.9 µM (inactive); in experiment [4], 13.7 µM (inactive); in experiment [5] it was 24.3 µM (inactive); in [6], 16 µM (inactive). For the same compound, the GI50 is 16.4 µM (inactive) in [7]; 18.6 µM (inactive) in experiment [8]; 17.9 µM (inactive) in experiment [9]; 16.1 µM (inactive) in [10]; 19 µM (inactive) in [11]; 9.66 µM (inactive) in experiment [12]. For the same compound, the GI50 was 14.3 µM (inactive) in [13]; 17.9 µM (inactive) in [14]; 23.9 µM (inactive) in [15]; 10.3 µM (inactive) in experiment [16]; 17 µM (inactive) in [17]; 17.6 µM (inactive) in experiment [18]. Besides, the GI50 in [19] is 17 µM (inactive); in experiment [20], 12.2 µM (inactive).

As to `C=CC(C)(C)C(=C)C(=O)N(C)c1ccccc1I`, the GI50 in experiment [1] was > 100 µM (inactive); in [2], > 100 µM (inactive); in [3], 84.9 µM (inactive); in [4], > 100 µM (inactive); in [5], > 100 µM (inactive); in experiment [6] it was > 100 µM (inactive). The GI50 in experiment [7] is > 100 µM (inactive); in experiment [8], 83.2 µM (inactive); in experiment [9], > 100 µM (inactive); in experiment [10] it was > 100 µM (inactive); in [11], > 100 µM (inactive); in experiment [12], > 100 µM (inactive). The GI50 in experiment [13], in experiment [14], in experiment [15], in [16], in experiment [17] and in [18] was > 100 µM (inactive) in each case. Besides, the GI50 in [19] and in [20] was > 100 µM (inactive) in each case.

On to `Cc1nc(-c2ccccc2)c(C)n2c1nc1ccccc12`, for which the GI50 was 27.2 µM (inactive) in experiment [1]; 31.3 µM (inactive) in experiment [2]; 31.5 µM (inactive) in experiment [3]; 20.8 µM (inactive) in experiment [4]; 35.3 µM (inactive) in [5]; 30.3 µM (inactive) in [6]. Moreover, the GI50 in experiment [7] was 29.9 µM (inactive); in experiment [8] it was 27.5 µM (inactive); in [9] it was 23.8 µM (inactive); in experiment [10] it was 25.9 µM (inactive); in experiment [11] it was 29.9 µM (inactive); in experiment [12], 25.1 µM (inactive). For the same compound, the GI50 is 22.1 µM (inactive) in [13]; 25.9 µM (inactive) in [14]; 20.1 µM (inactive) in experiment [15]; 33 µM (inactive) in experiment [16]; 12.6 µM (inactive) in experiment [17]; 29.4 µM (inactive) in experiment [18]. The GI50 is 30.1 µM (inactive) in experiment [19] and 19.3 µM (inactive) in experiment [20].

With `CSc1c(CC(=O)O)n(Cc2ccccc2)c2ccccc12`, the GI50 in experiment [1] is > 100 µM (inactive); in experiment [2] it was > 100 µM (inactive); in experiment [3], > 100 µM (inactive); in experiment [4], > 100 µM (inactive); in [5], 72.3 µM (inactive); in [6], > 100 µM (inactive). Further, the GI50 is > 100 µM (inactive) in experiment [7]; > 100 µM (inactive) in experiment [8]; 60.8 µM (inactive) in [9]; > 100 µM (inactive) in experiment [10]; > 100 µM (inactive) in experiment [11]; > 100 µM (inactive) in [12]. Also, the GI50 was > 100 µM (inactive) in experiment [13]; > 100 µM (inactive) in [14]; > 100 µM (inactive) in [15]; > 100 µM (inactive) in experiment [16]; 91.6 µM (inactive) in experiment [17]; > 100 µM (inactive) in experiment [18]. In addition, the results for the GI50 in experiment [19] and in experiment [20] were > 100 µM (inactive) and 81.3 µM (inactive), respectively.

With `C/C(=N\Nc1nc2ccccc2[nH]1)c1ncccn1`, the GI50 is 0.0851 µM (active) in experiment [1]; < 0.0197 µM (active) in experiment [2]; 0.0226 µM (active) in [3]; 0.0236 µM (active) in [4]; 0.044 µM (active) in [5]; 0.047 µM (active) in experiment [6]. Moreover, the GI50 is 0.388 µM (active) in experiment [7]; < 0.01 µM (active) in [8]; 0.0299 µM (active) in [9]; 0.043 µM (active) in experiment [10]; 1.92 µM (inactive) in experiment [11]; 0.0771 µM (active) in experiment [12]. Also, the GI50 is 0.0382 µM (active) in experiment [13]; 2.01 µM (inactive) in experiment [14]; 0.214 µM (active) in experiment [15]; 0.0344 µM (active) in [16]; 0.0215 µM (active) in [17]; 1.31 µM (inactive) in [18]. The figures for the GI50 in [19] and in [20] were 0.0462 µM (active) and 0.0693 µM (active), respectively.

These data come from ChEMBL document CHEMBL1201862, “PubChem BioAssay data set” (2004).
